Test results from ChEMBL document CHEMBL1201862, “PubChem BioAssay data set” (2004).
Calls of active or inactive are those of the source.

How the values were obtained:
[1] = blockers of HIV-1 ZM109 envelope-driven cell-cell fusion – HeLa effector, CEM target cells, luciferase, cherry-pick, dose response (AID 652058); assay type: functional, cell-based;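 note: luciferase signal from HIV-1 Env mediated cell-cell fusion of effector and target cells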
[2] = off-target signal loss in HeLa-CEM21 co-culture – HeLa F-luc CTL cells, cherry-picked, counter-screen for HIV-1 Env fusion inhibitor project, dose response (AID 652040); assay type: functional, cell-based;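 note: potency for signal decrease marking cytotoxic or nonspecific inhibition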
[3] = HIV-1 AD8 envelope cell-cell fusion blockers – cherry-pick, dose response (AID 652062); assay type: functional, cell-based;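 note: luciferase signal from cell-cell fusion driven by HIV-1 clade B AD8 Env; potency is for inhibitors of fusion seen as a drop in luminescence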
[4] = blockers of HIV-1 envelope-mediated cell-cell fusion – cherry-pick, dose response (AID 652057); assay type: functional, cell-based
cells = assay type: functional, cell-based
[5] = target: T1, Nuclear receptor subfamily 0 group B member 1 (Homo sapiens, UniProt P51843); assay type: functional, cell-based;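 note: HEK293T cells transfected with SF-1 and DAX-1 plus StAR promoter luciferase reporter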
T1 sequence (P51843 whole entry): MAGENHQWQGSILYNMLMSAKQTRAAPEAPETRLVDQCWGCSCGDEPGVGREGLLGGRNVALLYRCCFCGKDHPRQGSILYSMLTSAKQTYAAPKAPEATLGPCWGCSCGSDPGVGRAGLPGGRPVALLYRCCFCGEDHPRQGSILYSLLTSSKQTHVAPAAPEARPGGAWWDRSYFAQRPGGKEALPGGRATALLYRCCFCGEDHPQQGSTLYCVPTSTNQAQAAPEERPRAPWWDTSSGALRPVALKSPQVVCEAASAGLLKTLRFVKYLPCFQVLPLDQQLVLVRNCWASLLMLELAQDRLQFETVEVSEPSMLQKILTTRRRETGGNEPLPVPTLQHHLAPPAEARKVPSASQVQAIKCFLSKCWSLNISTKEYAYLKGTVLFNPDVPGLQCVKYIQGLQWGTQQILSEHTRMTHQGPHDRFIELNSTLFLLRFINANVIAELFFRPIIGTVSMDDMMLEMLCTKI

Cytochrome P450 2C9 = Cytochrome P450 2C9 (Homo sapiens, UniProt P11712)
Sequence of Cytochrome P450 2C9 (P11712 whole entry): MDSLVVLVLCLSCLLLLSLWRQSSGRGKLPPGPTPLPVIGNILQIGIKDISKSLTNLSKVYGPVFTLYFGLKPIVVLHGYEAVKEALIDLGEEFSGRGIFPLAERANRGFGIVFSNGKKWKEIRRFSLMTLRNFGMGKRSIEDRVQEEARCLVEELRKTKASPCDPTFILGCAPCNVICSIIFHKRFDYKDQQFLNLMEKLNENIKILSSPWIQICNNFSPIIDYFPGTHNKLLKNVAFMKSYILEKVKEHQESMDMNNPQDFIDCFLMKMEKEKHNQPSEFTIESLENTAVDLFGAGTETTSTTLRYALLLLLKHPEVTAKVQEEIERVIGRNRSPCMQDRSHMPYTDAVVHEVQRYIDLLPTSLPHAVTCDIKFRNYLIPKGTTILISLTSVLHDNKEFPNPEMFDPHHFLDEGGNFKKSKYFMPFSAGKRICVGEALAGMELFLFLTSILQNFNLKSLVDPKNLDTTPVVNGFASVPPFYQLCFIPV

Cytochrome P450 1A2 = target: T2, Cytochrome P450 1A2 (Homo sapiens, UniProt P05177);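 note: PubChem cytochrome P450 panel assay, CYP1A2 panel member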
T2 sequence (P05177 whole entry): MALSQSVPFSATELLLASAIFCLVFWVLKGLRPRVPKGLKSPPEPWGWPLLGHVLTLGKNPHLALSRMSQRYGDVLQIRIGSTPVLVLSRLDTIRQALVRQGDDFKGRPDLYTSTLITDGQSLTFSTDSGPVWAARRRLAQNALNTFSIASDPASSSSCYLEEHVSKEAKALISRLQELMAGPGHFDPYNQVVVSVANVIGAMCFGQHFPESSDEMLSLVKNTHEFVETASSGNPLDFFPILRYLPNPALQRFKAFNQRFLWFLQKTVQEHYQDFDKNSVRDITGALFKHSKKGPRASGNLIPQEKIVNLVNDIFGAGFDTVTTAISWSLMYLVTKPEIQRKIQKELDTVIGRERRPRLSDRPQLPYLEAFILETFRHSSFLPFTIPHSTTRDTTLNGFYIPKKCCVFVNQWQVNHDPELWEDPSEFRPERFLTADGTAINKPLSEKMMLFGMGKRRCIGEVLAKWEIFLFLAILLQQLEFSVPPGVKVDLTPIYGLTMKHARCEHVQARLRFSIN

Cytochrome P450 2D6 = Cytochrome P450 2D6 (Homo sapiens, UniProt P10635);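 note: CYP2D6 member of a cytochrome P450 panel assay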
Sequence of Cytochrome P450 2D6 (P10635 whole entry): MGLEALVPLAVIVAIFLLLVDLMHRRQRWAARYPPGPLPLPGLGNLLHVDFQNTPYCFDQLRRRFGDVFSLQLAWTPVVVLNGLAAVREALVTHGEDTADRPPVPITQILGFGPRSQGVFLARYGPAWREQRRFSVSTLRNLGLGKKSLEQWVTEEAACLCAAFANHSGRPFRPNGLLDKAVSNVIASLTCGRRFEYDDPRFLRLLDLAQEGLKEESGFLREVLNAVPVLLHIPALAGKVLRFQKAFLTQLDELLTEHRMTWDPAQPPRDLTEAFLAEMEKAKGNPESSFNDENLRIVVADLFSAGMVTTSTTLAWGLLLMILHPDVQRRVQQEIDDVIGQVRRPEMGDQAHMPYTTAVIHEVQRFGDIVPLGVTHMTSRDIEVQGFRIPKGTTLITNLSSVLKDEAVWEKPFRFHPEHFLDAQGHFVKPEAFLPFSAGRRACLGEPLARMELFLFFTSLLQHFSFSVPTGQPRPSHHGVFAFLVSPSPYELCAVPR

[6] = target: T3, Short transient receptor potential channel 4 (Mus musculus, UniProt Q9QUQ5); experiment: calcium entry via TRPC4 opening agents – cell-based, HEK293 TRPC4/mu-opioid, Fluo-4 calcium, dose response (AID 434937); assay type: functional
T3 sequence (Q9QUQ5 whole entry): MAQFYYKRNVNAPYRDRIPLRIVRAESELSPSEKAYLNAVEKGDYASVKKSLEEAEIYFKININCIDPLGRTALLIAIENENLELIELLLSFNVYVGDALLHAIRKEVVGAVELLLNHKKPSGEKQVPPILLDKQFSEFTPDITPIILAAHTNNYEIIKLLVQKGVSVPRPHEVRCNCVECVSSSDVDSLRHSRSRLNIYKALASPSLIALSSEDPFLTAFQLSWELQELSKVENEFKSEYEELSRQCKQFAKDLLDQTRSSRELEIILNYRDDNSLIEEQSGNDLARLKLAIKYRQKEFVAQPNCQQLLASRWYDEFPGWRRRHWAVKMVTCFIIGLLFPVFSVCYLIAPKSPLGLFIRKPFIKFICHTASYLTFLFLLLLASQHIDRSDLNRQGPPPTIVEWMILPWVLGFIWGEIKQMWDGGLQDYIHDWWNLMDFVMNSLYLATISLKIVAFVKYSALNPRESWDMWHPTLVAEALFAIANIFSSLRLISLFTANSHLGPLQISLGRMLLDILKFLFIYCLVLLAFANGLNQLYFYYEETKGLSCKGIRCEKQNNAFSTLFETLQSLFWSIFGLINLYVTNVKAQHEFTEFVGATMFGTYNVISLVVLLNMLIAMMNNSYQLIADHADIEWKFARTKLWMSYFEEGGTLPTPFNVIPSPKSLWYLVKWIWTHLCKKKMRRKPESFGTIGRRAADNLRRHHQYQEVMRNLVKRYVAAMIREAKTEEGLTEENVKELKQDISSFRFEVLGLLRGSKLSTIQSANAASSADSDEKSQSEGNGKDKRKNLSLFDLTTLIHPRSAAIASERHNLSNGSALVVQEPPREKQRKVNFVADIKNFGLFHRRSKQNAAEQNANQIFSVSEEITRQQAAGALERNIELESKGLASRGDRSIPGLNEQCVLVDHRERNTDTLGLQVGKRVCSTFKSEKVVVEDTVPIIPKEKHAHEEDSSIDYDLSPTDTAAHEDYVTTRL

Cytochrome P450 2C19 = Cytochrome P450 2C19 (Homo sapiens, UniProt P33261); experiment: Cytochrome panel assay with activity outcomes. Panel member name: p450-cyp2c19 Compounds with AC50 equal or less than 10 uM are considered active; assay type: functional; details: read-out: AC50
Sequence of Cytochrome P450 2C19 (P33261 whole entry): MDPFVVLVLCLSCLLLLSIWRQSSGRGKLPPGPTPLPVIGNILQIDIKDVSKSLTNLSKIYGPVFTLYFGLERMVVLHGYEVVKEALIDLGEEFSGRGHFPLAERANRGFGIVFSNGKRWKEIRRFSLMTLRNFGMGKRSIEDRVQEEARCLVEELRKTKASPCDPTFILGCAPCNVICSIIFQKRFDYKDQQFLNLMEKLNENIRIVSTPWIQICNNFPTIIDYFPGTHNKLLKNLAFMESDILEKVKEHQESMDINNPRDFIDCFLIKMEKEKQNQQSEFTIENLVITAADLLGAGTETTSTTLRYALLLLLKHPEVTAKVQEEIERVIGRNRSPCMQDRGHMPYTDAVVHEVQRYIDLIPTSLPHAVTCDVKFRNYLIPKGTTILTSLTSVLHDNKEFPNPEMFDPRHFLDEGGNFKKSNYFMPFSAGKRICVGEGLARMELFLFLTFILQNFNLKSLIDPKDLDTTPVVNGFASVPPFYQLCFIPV

[7] = target: T4, Corticotropin-releasing factor receptor 2/Corticotropin-releasing factor-binding protein (Homo sapiens, UniProt P24387+Q13324); experiment: activators of CRF receptor 2 with binding protein – uHTS hits, confirmation (AID 602473); assay type: functional; details: read-out: EC50_Mean
T4 sequence (Q13324 whole entry): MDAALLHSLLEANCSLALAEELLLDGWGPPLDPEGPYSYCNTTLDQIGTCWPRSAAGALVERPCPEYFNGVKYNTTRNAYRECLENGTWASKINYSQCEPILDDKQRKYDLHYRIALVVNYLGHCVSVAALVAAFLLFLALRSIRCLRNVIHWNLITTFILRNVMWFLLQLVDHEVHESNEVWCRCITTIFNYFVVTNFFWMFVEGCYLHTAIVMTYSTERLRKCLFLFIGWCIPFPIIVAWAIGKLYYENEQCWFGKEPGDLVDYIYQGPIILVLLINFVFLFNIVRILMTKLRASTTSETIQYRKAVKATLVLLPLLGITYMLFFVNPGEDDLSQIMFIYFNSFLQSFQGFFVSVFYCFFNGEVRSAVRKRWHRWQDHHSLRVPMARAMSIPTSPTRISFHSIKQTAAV
T4 sequence (P24387 whole entry): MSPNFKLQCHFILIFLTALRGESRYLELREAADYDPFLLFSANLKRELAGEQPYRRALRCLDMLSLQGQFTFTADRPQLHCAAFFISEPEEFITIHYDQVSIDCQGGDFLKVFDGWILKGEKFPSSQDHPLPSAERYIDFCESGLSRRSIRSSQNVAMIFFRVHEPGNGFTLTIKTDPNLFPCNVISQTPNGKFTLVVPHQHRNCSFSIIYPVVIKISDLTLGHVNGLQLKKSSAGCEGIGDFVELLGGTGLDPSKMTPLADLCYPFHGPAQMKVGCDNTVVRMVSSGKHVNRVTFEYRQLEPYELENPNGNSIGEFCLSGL

[8] = blockade of melanocortin 4 receptor signaling – cell-based, plate reader, cherry pick, counter-screen for LGR2 antagonist project, dose response (AID 743444); assay type: functional;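 note: transfected HEK 293 cells stimulated with alpha-MSH peptide; potency of inhibitors of the alpha-MSH evoked signal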
HEK293 = experiment: EBV LMP1 TES2 canonical NF-kB signalling blockers – cell-based, HEK293, luciferase, cherry-pick, dose response (AID 588343); assay type: functional; details: Homo sapiens
[9] = blockers of bursicon-stimulated LGR2 cAMP reporter – cell-based, HEK293, CRE-luciferase reporter, cherry pick, set 2, dose response (AID 743343); assay type: functional;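 note: transfected cells were stimulated with diluted bursicon conditioned medium after compound addition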
[10] = A549 cell cytotoxicity, dose response, cytotoxicity control, plate reader, cherry-pick, antagonist series (AID 743412); assay type: functional, cell-based
[11] = toxicity toward HepG2 liver cells – cell-based, plate reader, cherry-pick, antagonist series, cytotoxicity control, dose response (AID 743416); assay type: functional
H9c2 = experiment: cells; assay type: functional, cell-based; details: Rattus norvegicus, H9c2, Myocardium;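 note: confirmatory concentration-response retest of ultra-high-throughput screening hits for modulation of myocardial damage; cell death induced by hydrogen peroxide oxidative stress; compound pretreatment for 60 min then peroxide exposure for 2 h; potency is for protecting the cells against peroxide damage rather than for killing them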
Cytochrome P450 3A4 = Cytochrome P450 3A4 (Homo sapiens, UniProt P08684);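 note: CYP3A4 tested as one member of a cytochrome P450 panel screen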
Sequence of Cytochrome P450 3A4 (P08684 whole entry): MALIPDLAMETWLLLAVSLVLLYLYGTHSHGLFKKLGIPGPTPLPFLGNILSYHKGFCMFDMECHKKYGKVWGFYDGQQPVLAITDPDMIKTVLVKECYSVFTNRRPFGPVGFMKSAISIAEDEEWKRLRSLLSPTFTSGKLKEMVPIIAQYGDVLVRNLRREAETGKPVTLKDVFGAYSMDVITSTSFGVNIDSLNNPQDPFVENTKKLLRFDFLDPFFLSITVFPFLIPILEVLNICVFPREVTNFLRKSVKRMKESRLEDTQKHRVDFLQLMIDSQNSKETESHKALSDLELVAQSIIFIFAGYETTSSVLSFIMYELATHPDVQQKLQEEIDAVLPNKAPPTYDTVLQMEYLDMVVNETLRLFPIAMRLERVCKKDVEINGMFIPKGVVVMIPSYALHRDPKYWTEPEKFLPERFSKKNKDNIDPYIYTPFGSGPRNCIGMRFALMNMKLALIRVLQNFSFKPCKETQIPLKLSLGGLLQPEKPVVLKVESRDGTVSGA

[12] = intracellular Trypanosoma cruzi inhibitors in host cells – cell-based, plate reader, cherry-pick samples, set 3, dose response (AID 651818); assay type: functional;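 note: compounds incubated with infected cells for about four days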

With `CCOC(=O)c1c(CSc2cccs2)n(C)c2cc(Br)c(O)c(CN(C)C)c12` the AC50 [1] was 1.23 µM (active), the AC50 [2] was 2.08 µM (active) and the AC50 [3] was 14.4 µM (active). For the same compound, the AC50 [4] was 1.62 µM (active).
With `CCOc1cccc(/C=C/c2ccc3ccccc3n2)c1OC(C)=O` the IC50 (cells) was > 67.5 µM (inactive) and the IC50 [5] was > 67.5 µM (inactive).
With `CC(C)NC(=O)COC(=O)c1cc(O)nc2ccccc12` the AC50 (Cytochrome P450 2C9) was “inconclusive” and the AC50 (Cytochrome P450 1A2) was 7.08 µM (inconclusive).
For `COc1ccc(C(=O)CN2CCN(c3ccc(F)cc3)CC2)cc1OC`, the AC50 (Cytochrome P450 2C9) was “inconclusive” and the AC50 (Cytochrome P450 2D6) was 25.1 µM (inconclusive).
With `O=C(NCc1ccccc1)C1=C[C@@H](C2CCCCC2)C[C@@H](OCc2ccc(CO)cc2)O1` the EC50 [6] was 2.37 µM (active).
With `CCc1cc(C(=O)NN=C(S)NCC2CCCO2)cs1` (configuration not stated) the AC50 (Cytochrome P450 2C9) was “inconclusive”, the AC50 (Cytochrome P450 2C19) was 7.94 µM (inconclusive) and the AC50 (Cytochrome P450 1A2) was 17.8 µM (inconclusive).
With `CCCc1c(O)nc(SCCN(CCC)CCC)nc1O` the EC50 [6] was 2.66 µM (active).
For `CCN1CCN(c2ccc(S(=O)(=O)N3CCCCC3)cc2NC(=O)CC(C)c2ccccc2)CC1` (configuration not stated), the EC50 [6] was 1.06 µM (active).
For `CS(=O)(=O)N1CCC2(CC1)CN(c1cccc(-c3ccccc3)c1)C2`, the AC50 (Cytochrome P450 2C9) was “inconclusive”.
With `COc1ccc(CNCc2cn(-c3cccc(F)c3)nc2-c2ccc(C)o2)cc1` the EC50 [6] was 5.96 µM (active).
In the case of `COC(=O)c1ccc(C(S)=NCC2(N(C)C)CCCCC2)cc1`, the EC50 [6] was 5.31 µM (active).
In the case of `Cc1ccc(-c2nc3c(=O)n(C)c4ccccc4c3o2)cc1`, the AC50 (Cytochrome P450 2C9) was “inconclusive” and the AC50 (Cytochrome P450 2C19) was 8.91 µM (inconclusive).
With `CCOc1ccccc1N(CC(=O)N1CCOCC1)S(=O)(=O)c1ccc(SC)cc1` the EC50 [7] was 2.77 µM (active) and the EC50 [6] was 2.66 µM (active).
In the case of `COc1ccc2oc(C(=O)NCCc3ccccc3)c(C)c2c1`, the IC50 (cells) was > 67.5 µM (inactive), the IC50 [5] was > 67.5 µM (inactive) and the AC50 [8] was 8.65 µM (active). For the same compound, the AC50 (HEK293) was 2.48 µM (active), the AC50 [9] was 5.62 µM (active) and the AC50 [10] was 8.39 µM (active). For the same compound, the AC50 [11] was 12.7 µM (active).
In the case of `NC(=O)C1CCN(C(=O)c2cc3c(s2)CCCC3)CC1`, the IC50 (cells) was > 67.6 µM (inactive) and the IC50 [5] was > 67.6 µM (inactive).
For `CCN(C[C@H]1N[C@@](C)(C(=O)OC)[C@H]2C(=O)N(Cc3ccccc3)C(=O)[C@@H]12)C(=O)c1ccc(C(C)(C)C)cc1`, the AC50 [1] was 4.92 µM (active), the AC50 [2] was 10.2 µM (active) and the AC50 [3] was 16.8 µM (active). For the same compound, the AC50 [4] was 5.34 µM (active) and the IC50 (H9c2) was > 79 µM (inactive).
With `Cc1cccc(NC(=O)CCSc2nc(C)cc(C)n2)c1` the AC50 (Cytochrome P450 3A4) was 12.6 µM (inconclusive), the AC50 (Cytochrome P450 2C9) was “inconclusive” and the AC50 (Cytochrome P450 2D6) was 22.4 µM (inconclusive).
In the case of `C[C@@H]1CN([C@@H](C)CO)C(=O)c2cccc(NC(=O)c3nc4ccccc4s3)c2O[C@@H]1CN(C)CC1CCCCC1`, the AC50 [12] was 7.6 µM (active).
For `C[C@@H]1CN([C@H](C)CO)C(=O)c2cccc(NC(=O)NC3CCCCC3)c2O[C@H]1CN(C)CC1CCCCC1`, the AC50 [12] was 2.5 µM (active).
With `C[C@H](CO)N1C[C@H](C)[C@@H](CN(C)Cc2ccc(Oc3ccccc3)cc2)Oc2c(NC(=O)c3ccc(-c4nccs4)cc3)cccc2C1=O` the AC50 [12] was 3.08 µM (active).
In the case of `C[C@H]1CN([C@@H](C)CO)C(=O)Cc2cc(NC(=O)Nc3ccc(F)cc3)ccc2O[C@@H]1CN(C)Cc1ccc(C(F)(F)F)cc1`, the AC50 [12] was 4.21 µM (active).
In the case of `C[C@@H]1CN([C@H](C)CO)C(=O)c2cccc(NS(=O)(=O)c3ccccc3)c2O[C@@H]1CN(C)Cc1ccc(C(=O)Nc2ccccc2N)cc1`, the AC50 [12] was 3.53 µM (active).
For `C[C@@H]1CCCCO[C@H](CN(C)C(=O)Nc2ccc(F)cc2)[C@@H](C)CN([C@H](C)CO)C(=O)c2cc(NC(=O)Nc3ccc(F)cc3)ccc2O1`, the AC50 [12] was 5.89 µM (active).
For `C[C@@H]1CN([C@@H](C)CO)S(=O)(=O)c2ccc(-c3cccc(F)c3)cc2O[C@@H]1CN(C)S(=O)(=O)c1ccccc1`, the AC50 [1] was 0.965 µM (active), the AC50 [3] was 6.62 µM (active) and the AC50 [4] was 0.597 µM (active).
With `C(=N\Nc1ccc2ccccc2n1)/c1ccc2c(c1)OCO2` the IC50 (cells) was > 67.6 µM (inactive), the IC50 [5] was > 0.278 µM (active) and the AC50 (HEK293) was 2.42 µM (active).
